{"source": "paper PMC7312527", "about": "(International Journal of Molecular Sciences, 2020)", "key": {"SH-SY5Y cells [1]": {"system": "SH-SY5Y cells", "test": "Neuroprotection against oxidative stress induced by H2O2 (MTT)", "format": "cell-based, human", "conditions": "H2O2 100 µM"}, "AChE from electric eel": {"biological_target": "AChE from electric eel (Electrophorus electricus, UniProt O42275)", "sequence (O42275 24-633)": "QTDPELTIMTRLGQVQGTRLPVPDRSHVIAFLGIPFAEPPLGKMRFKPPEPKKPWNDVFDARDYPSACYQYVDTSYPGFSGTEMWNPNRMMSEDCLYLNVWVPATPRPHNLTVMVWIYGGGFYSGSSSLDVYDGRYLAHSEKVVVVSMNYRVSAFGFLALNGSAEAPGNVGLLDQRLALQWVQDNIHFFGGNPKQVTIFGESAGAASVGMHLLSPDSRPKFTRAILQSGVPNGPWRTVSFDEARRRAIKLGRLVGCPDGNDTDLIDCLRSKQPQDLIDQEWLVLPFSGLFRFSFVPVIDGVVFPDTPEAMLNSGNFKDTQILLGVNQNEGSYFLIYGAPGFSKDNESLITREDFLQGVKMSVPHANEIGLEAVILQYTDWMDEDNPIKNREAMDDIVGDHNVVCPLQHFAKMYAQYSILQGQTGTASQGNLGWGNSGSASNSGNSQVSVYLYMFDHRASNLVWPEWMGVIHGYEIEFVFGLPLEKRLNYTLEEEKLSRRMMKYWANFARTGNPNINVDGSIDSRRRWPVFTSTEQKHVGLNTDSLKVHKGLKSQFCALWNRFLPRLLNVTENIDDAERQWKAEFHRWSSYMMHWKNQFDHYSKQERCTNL", "test": "biochemical"}, "BuChE from equine serum": {"biological_target": "BuChE from equine serum (Equus caballus, UniProt P81908)", "sequence (P81908 whole entry)": "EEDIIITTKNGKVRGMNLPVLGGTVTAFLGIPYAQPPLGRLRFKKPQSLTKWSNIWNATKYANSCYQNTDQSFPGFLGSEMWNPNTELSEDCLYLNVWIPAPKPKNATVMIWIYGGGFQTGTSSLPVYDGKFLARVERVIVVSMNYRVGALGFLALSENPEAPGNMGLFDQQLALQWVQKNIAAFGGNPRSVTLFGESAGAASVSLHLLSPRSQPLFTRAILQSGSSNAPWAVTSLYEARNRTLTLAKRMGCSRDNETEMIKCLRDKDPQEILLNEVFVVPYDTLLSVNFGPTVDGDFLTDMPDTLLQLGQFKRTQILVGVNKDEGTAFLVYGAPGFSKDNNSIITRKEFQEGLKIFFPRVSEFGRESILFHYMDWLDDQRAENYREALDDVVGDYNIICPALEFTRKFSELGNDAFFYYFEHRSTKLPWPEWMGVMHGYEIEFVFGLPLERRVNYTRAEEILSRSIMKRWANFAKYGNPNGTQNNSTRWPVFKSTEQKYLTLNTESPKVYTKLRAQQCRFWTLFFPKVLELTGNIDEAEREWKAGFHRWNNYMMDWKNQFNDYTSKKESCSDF", "test": "biochemical"}, "[2]": {"biological_target": "T1, AChE–BACE-1A protein pair (Homo sapiens, UniProt P22303+P56817)", "T1 construct": "pGBKT7-hAChE plasmid contained the cDNA fragment encoding for aa 52–577; N-terminal domain (aa 46–457) of BACE1A (GenBank: AF204943.1); host or cells: Saccharomyces cerevisiae Y2HGold (bait) mated with Y187 (prey)", "T1 sequence (P22303 52-577)": "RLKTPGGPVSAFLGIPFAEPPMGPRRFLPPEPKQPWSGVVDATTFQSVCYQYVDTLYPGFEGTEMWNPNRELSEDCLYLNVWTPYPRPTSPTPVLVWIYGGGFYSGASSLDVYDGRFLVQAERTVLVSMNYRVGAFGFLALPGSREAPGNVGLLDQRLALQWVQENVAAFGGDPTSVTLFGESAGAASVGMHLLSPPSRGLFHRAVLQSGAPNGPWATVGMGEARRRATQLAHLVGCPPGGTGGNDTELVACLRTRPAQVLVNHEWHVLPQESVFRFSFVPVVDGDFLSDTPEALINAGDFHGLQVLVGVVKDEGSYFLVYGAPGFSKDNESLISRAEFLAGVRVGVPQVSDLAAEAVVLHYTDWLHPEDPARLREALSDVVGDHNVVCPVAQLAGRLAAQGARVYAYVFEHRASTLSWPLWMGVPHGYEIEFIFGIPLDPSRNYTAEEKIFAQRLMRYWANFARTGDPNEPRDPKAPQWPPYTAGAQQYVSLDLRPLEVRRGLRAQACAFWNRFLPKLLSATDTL", "T1 sequence (P56817 46-457)": "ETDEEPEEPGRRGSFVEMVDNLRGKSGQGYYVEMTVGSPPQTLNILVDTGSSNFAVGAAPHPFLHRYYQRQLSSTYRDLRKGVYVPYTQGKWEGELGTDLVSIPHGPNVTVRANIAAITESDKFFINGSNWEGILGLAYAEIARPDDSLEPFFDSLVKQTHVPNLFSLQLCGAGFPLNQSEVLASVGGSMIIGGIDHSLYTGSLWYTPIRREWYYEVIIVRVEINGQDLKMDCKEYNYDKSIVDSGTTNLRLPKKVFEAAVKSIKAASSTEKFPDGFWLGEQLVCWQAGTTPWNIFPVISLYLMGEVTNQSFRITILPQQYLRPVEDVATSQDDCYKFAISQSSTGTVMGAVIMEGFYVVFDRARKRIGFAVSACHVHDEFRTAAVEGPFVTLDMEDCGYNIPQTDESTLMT", "test": "Yeast three-hybrid (Y3H) test and β-galactosidase assay, AChE–BACE-1A", "format": "cell-based", "procedure": "The putative induction of interactions between hybrid ligands and five selected proteins was evaluated by the Y3H method. […]. The company maintained cDNA synthesis and cloning of inserts in a proper frame, such as the NdeI/BamHI fragments into the pGBKT7 (AChE) or pGADT7 (A4, BACE1A, MAO B, MAPT) vectors. Moreover, the yeast codon optimization was realized to facilitate the high expression of human recombinant proteins in Saccharomyces cerevisiae. The cDNA encoding for human AChE (GenBank M55040.1) was modified by removing the fragments for a signal peptide (aa 1–51) and the domain responsible for protein tetramerization (aa 578–611). […]\nThe putative protein–protein interactions between bait (AChE) and the four preys (A4, BACE1A, MAO B, and MAPT) were analyzed by the small-scale mating procedure (5mL) based on the Matchmaker Gold yeast two-hybrid system manual recommendations. […]\nThe yeast β-galactosidase assay kit (ThermoFisher Scientific, USA) was applied to quantitatively analyze the strength of the hybrid-ligand induced interactions.\nTo evaluate the β-galactosidase activity in the yeast culture, the yeast β-galactosidase microplate assay protocol (stopped) was used according to the manufacturer’s instructions. […] The optical densities at 660 nm and absorbance at 420 nm were evaluated by (Synergy H1, Biotek). In the quantitative β-galactosidase assay, the hybrid ligand 3c was used. […]"}, "[3]": {"system": "histone H3 phosphorylation (Ser10) in human astrocytes", "test": "Global histone H3 phosphorylation (Ser10) colorimetric assay", "format": "cell-based", "conditions": "for amount of phosphorylated H3Ser10 / phosphorylation of H3Ser10 in comparison to 100% control: 24 h", "procedure": "Cell culture: Human astrocytes (HA, Sciencell, USA) were grown in the Astrocyte Cell Medium (Sciencell) supplemented with 2% fetal bovine serum (Sciencell), 1% Astrocyte Cell Growth Supplement (Sciencell), and 1% penicillin/streptomycin solution (Sciencell). Cells were cultured in the incubator at 37 °C and 5% CO2. To start the experiment, cells were seeded at the density of 1.5 × 10^6 cells/well in the flasks and were kept in the incubator (37 °C, 5% CO2) for 24 h. After the incubation period, the medium was removed. Then, the cells were exposed to compound 3c (1 µM and 0.025 µM) or nothing but control medium for 24 h. Then, cells were collected and histone extracts from them were prepared.\nThe levels of histone H3 phosphorylation (Ser10) were determined using a Global Histone H3 phosphorylation (Ser10) colorimetric assay kit (Epigentek) according to the manufacturer’s instructions. In the assay, the phosphorylated histone H3 at ser10 is captured in the wells of a 96-well plate coated with an anti-phospho histone H3 antibody. The captured phosphorylated histone H3 (Ser10) is detected with a labeled detection antibody followed by a color development reagent. […]"}, "SH-SY5Y cells [4]": {"system": "SH-SY5Y cells", "test": "Neuroprotection against rotenone/oligomycin A, co-incubation (MTT)", "format": "cell-based, human", "conditions": "R/O mixture"}, "SH-SY5Y cells [5]": {"system": "SH-SY5Y cells", "test": "Neuroprotection against rotenone/oligomycin A, pre-incubation (MTT)", "format": "cell-based, human", "conditions": "R/O mixture, 0.0001 µM"}}}
{"smiles": "O=C(NCCCCNc1c2c(nc3ccccc13)CCCC2)c1cc(Cl)cc(Cl)c1", "note": "[Compound 3c]", "values": [{"measurement": "neuroprotection", "setting": "SH-SY5Y cells [1]; compound 0.01 µM", "result": 46.17, "unit": "%"}, {"measurement": "neuroprotection", "setting": "SH-SY5Y cells [1]; compound 0.1 µM", "result": 36.48, "unit": "%"}, {"measurement": "neuroprotection", "setting": "SH-SY5Y cells [1]; compound 1 µM", "result": 0, "unit": "%"}, {"measurement": "neuroprotection", "setting": "SH-SY5Y cells [1]; compound 10 µM", "result": 0, "unit": "%"}, {"measurement": "Selectivity for AChE", "setting": "AChE from electric eel; IC50 (BuChE)/IC50(AChE)", "result": 4.864}, {"measurement": "IC50", "setting": "AChE from electric eel; means ± SD of three independent experiments, read-out: EeAChE IC50 ± SD", "result": "25 ± 3", "unit": "nM"}, {"measurement": "Selectivity for BuChE", "setting": "BuChE from equine serum; IC50(AChE)/IC50(BuChE)", "result": 0.206}, {"measurement": "IC50", "setting": "BuChE from equine serum; means ± SD of three independent experiments, read-out: EqBuChE IC50 ± SD", "result": "123 ± 11", "unit": "nM"}, {"measurement": "hybrid ligand-mediated interaction AChE–BACE-1A (colonies on DDO/X/A plates)", "setting": "[2]; 10 µM hybrid ligand", "result": "interaction between AChE and BACE-1 is mediated by hybrid ligand 3c"}, {"measurement": "activity of β-galactosidase", "setting": "[2]; AChE–BACE-1A, 10 μM ligand, yeast grown 96 h", "result": "88.69 ± 2.57", "unit": "units"}, {"measurement": "amount of phosphorylated H3Ser10", "setting": "[3]; 0.025 µM", "result": 28.26, "unit": "µg/mg"}, {"measurement": "phosphorylation of H3Ser10 in comparison to 100% control", "setting": "[3]; 0.025 µM", "result": 105.64, "unit": "%"}, {"measurement": "DNA damage", "setting": "[3]; 1 µM and 0.025 µM", "result": "not observed"}, {"measurement": "amount of phosphorylated H3Ser10", "setting": "[3]; 1 µM", "result": 29.08, "unit": "µg/mg"}, {"measurement": "phosphorylation of H3Ser10 in comparison to 100% control", "setting": "[3]; 1 µM", "result": 108.69, "unit": "%"}, {"measurement": "neuroprotection", "setting": "SH-SY5Y cells [4]; 0.0001 µM", "result": 29.10, "unit": "%"}, {"measurement": "neuroprotection", "setting": "SH-SY5Y cells [4]; 0.001 µM", "result": 22.11, "unit": "%"}, {"measurement": "neuroprotection", "setting": "SH-SY5Y cells [4]; 0.01 µM", "result": 12.90, "unit": "%"}, {"measurement": "neuroprotection", "setting": "SH-SY5Y cells [4]; 0.1 µM", "result": 10.99, "unit": "%"}, {"measurement": "neuroprotection", "setting": "SH-SY5Y cells [5]", "result": 2.84, "unit": "%"}]}
